Results reported in patent US20090197891A1, “Use of (4-Alkylpiperazinyl)(phenyl) methanones in the treatment of alzheimer's disease” (priority 2004, published 2009).
Entries after “also recorded” stand apart in the source; their conditions may differ.

Experiments:
Type in all cases: cell-based, rat
[1] = system: PC12 cells; test: Aβ1-42-induced ATP depletion, ATPLite-M assay; details: for protective effect on mitochondrial function / ATP content: compound at 1 μM
Method: (§1) PC12 cells (rat pheochromocytoma) (ATCC, Manassas, Va.) were cultured in RPMI 1640 without glutamine medium containing 10% of bovine serum and 5% of horse serum at 37° and 5% CO2. These cells respond reversibly to NGF by induction of the neuronal phenotype. PC12 cells were incubated for 24 hours in 96-well plates (5.10^4 cells per well) with increasing concentrations (1, 10 and 100 μM) of procaine, procainamide, lidocaine, tetracaine, SP015, SP016, SP017 or SP008. Aβ1-42 was incubated overnight at 4° C. and then added to the cells at 0.1, 1 or 10 μM final concentrations for a 24 hours time period.
ATP concentrations were measured using the ATPLite-M™ assay (Packard BioSciences Co.), as previously described (Lecanu et al., cited above). In brief, cells were cultured on black 96-well ViewPlate™ and the ATP concentrations measured on a TopCount NXT™ counter (Packard BioSciences Co.) according to the manufacturer recommendations. The effect of Aβ1-42 was expressed in arbitrary units. To compare the potential protective effect of the compounds tested on ATP recovery, the decrease of ATP concentration induced by Aβ1-42 was considered to be 100% reduction and the effects of the compounds tested are shown as changes of this percentage.

[2] = system: PC12 cells; test: Glutamate-induced excitotoxicity, cell viability by MTT assay; details: for prevention of glutamate-induced neurotoxicity: 24 h pre-treatment with compound 0.3-30 μM
Method: To study the role played by the NMDA receptor in the Aβ1-42-induced neurotoxicity, increasing concentrations of (+)-MK801 were added to the cell media immediately before Aβ1-42. Cell viability was assessed 4 hours later using the MTT assay. To assess the effect of procaine and SP008 on the glutamate-induced excitotoxicity, PC12 cells were pre-treated with procaine or SP008 at 0.3, 1, 3, 10 and 30 μM for 24 hours and then submitted to glutamate exposure for another 24 hour time period. Cell viability was subsequently assessed using the MTT assay. To assess the role of sodium channels in A8142-induced neurotoxicity, PC12 cells were incubated for 4 hours with the sodium-channel blocker TTX at 3, 30 or 300 μM followed by addition of Aβ1-42. Cell viability was assessed by MTT 24 hours later. The involvement of the oxidative stress in the toxicity of Aβ1-42 was assessed by incubating the PC12 in the presence of 10, 100 or 500 μM PBN for 24 hours. Aβ1-42 was then added to the incubation media. Cell viability was assessed by MTT 24 hours later.
(§2) The cellular toxicity of Aβ was assessed using the 3-(4,5-dimethylthiazol-2-yl)-2,5-diphenyl tetrazolium bromide (MTT) assay (Trevigen, Gaithersburg, Md.) as previously described (Lecanu et al. (2004) Steroids, 69: 1-16). Briefly, 10 μl of the MTT solution were added to the cells cultured in 100 μl of medium. After an incubation period of 4 hours in the same conditions as above, 100 μl of detergent were added and cells incubated overnight at 37° C. The blue coloration was quantified at 600 nm and 690 nm using the Victor spectrophotometer (EGG-Wallac, Gaithersburg, Md.). The effect of Aβ1-42 was expressed as (DO600-DO690). To compare the protective effect of the compounds tested, the decrease of MTT signal observed with Aβ1-42 was considered to be the 100% inhibition of the NADPH diaphorase activity and the effect of the compounds tested is shown as an increase or decrease of this percentage.

[3] = system: PC12 cells; test: Aβ1-42-induced neurotoxicity, cell viability by MTT assay
Method: as §1, §2

CCN(CC)CCOC(=O)c1ccc(N)cc1 [procaine, reference compound]
preservation of intracellular ATP against Aβ1-42, general statement [1]: restore partially | inhibition of the neurotoxic effect of glutamate, general statement [2]: inhibited the neurotoxic effect | prevention of glutamate-induced neurotoxicity ([2]; glutamate 100 μM): prevented the glutamate-induced neurotoxicity in a biphasic manner

CC(=O)OC1CC(O)C2(C)C(OC(C)=O)C3C(CC(C)C12)OC(=O)C3CN1CCN(C(=O)c2ccccc2)CC1 (stereo not drawn) [SP015, Acetic acid 7-acetoxy-3-(4-benzoyl-piperazin-1-yl-methyl)-5-hydroxy-4a,8-dimethyl-2-oxo-dodecahydro-azuleno[6,5-b]furan-4-yl ester]
neuroprotection against Aβ1-42 (PC12 viability), general statement [3]: neuroprotection | neuroprotective effect on PC12 viability after Aβ1-42 exposure ([3]; compound at 1 and 10 μM, only against 10 μM Aβ1-42): displayed a neuroprotective effect | preservation of intracellular ATP against Aβ1-42, general statement [1]: preservation of the ATP cellular stocks | protective effect on mitochondrial function / ATP content ([1]; highest Aβ1-42 concentration examined): important protection

CCN1CCN(C(=O)c2ccc(OC)c(OC)c2OC)CC1 [SP008, 4-Ethyl-1-(2,3,4-trimethoxybenzoyl)-piperazine]
neuroprotection against Aβ1-42 (PC12 viability), general statement [3]: significant neuroprotective properties; also recorded: strong neuroprotective properties | protective effect against Aβ1-42-induced cytotoxicity (MTT) ([3]; 0.1 μM Aβ1-42, compound at 10 μM, p<0.01): exerted a protective effect | reduction of Aβ1-42-induced NADPH diaphorase inhibition (MTT) ([3]; 0.1 μM Aβ1-42, compound at 1 and 100 μM): did not reduce | neuroprotective effects against Aβ1-42 (MTT) ([3]; 1 μM Aβ1-42, compound at 1 (p<0.05), 10 (p<0.01) and 100 μM (p<0.001)): demonstrated neuroprotective effects | neuroprotective properties against Aβ1-42-induced toxicity (MTT) ([3]; 10 μM Aβ1-42, compound at 10 (p<0.05) and 100 μM (p<0.01)): displayed neuroprotective properties | potency against Aβ1-42 compared with procaine ([3]; two highest concentrations of Aβ1-42): more potent than procaine | preservation of intracellular ATP against Aβ1-42, general statement [1]: preserved Aβ1-42-induced ATP depletion | preservation of Aβ1-42-depleted ATP stock ([1]; 0.1 μM Aβ1-42, compound at 10 μM): did not preserve | prevention of ATP decrease ([1]; 0.1 μM Aβ1-42, compound at 1 and 100 μM, p<0.05): prevented the ATP decrease | ATP preservation ([1]; 1 μM Aβ1-42, compound 1-100 μM): dose-dependent ATP preservation | restoration of ATP levels ([1]; 10 μM Aβ1-42, only 100 μM compound statistically significant (p<0.01)): dose-dependent restoration of ATP levels | prevention of Aβ1-42-induced intracellular ATP stock depletion ([1]; even against 10 μM Aβ1-42): prevent the Aβ1-42-induced intracellular ATP stock depletion | inhibition of the neurotoxic effect of glutamate, general statement [2]: inhibited the neurotoxic effect | lowest concentration reducing glutamate-induced neurotoxicity [2]: 0.3 µM | prevention of glutamate-induced neurotoxicity ([2]; glutamate 100 μM): biphasic | neuroprotective effect compared with procaine at the same concentration ([2]; glutamate 100 μM, p<0.001): more important than the procaine effect | concentration of maximum (peak) protective effect ([2]; glutamate 100 μM, p<0.001 compared to control): 3 µM

CC(=O)OC1CC(OC(C)=O)C2(C)C(O)C3C(CC(C)C12)OC(=O)C3CN1CCN(C(=O)c2ccccc2)CC1 (stereo not drawn) [SP016, acetic acid 5-acetoxy-3-(4-benzoylpiperazin-1-yl-methyl)-4-hydroxy-4a,8-dimethyl-2-oxo-dodecahydro-azuleno[6,5-b]furan-7-yl ester]
neuroprotection against Aβ1-42 (PC12 viability), general statement [3]: no effect was observed | preservation of intracellular ATP against Aβ1-42, general statement [1]: preservation of the ATP cellular stocks | protective effect on mitochondrial function / ATP content ([1]; low Aβ1-42 concentrations (0.1 μM)): significant effect

CC1=CCC23OC2(C)CCC2C(CN4CCN(C(=O)c5ccccc5)CC4)C(=O)OC2C13 (stereo not drawn) [SP017, 3-(4-benzoyl-piperazin-1-yl-methyl)-6,6a-epoxy-6,9-dimethyl-3a,4,5,6,6a,7,9a,9b-octahydro-3H-azuleno[4,5-b]furan-2-one]
efficacy range, inhibition of Aβ1-42 toxicity (mitochondrial diaphorase activity) [3]: 30-70% | neuroprotection against Aβ1-42 (PC12 viability), general statement [3]: highest protective effect; also recorded: neuroprotection | preservation of intracellular ATP against Aβ1-42, general statement [1]: preservation of the ATP cellular stocks
